Assay [1] has as its system pancreatic β cells (islets of Langerhans). In words: Glucose-stimulated insulin secretion from isolated islets of Langerhans. Conditions: for insulin secretion on stimulation with glucose: 24 hr with 10 or 100 nM GW501516, 16.7 mM glucose, 1 hr. It counts as cell-based, mouse. Here is the method: Animals, 6-week-old male C57BL/6J and Lepr^db/Lepr^db mice, were purchased from Clea Japan, Inc., and kept under the following conditions: room temperature, 25° C.; humidity, 60±10%; and 12 hr light/dark cycles (light period, 08:00 to 20:00). All animals were tamed for one week and then subjected to tests. The animals were given free access to food (commercial lab chow, pellet form CE-2, Clea Japan, Inc.) and water. Male C57BL/6J and Lepr^db/Lepr^db mice were used. After clamping the common bile duct at a point close to the duodenum outlet under Nembutal anesthetization, 1 mg/mL collagenase (Wako Pure Chemical Industries, Ltd., Japan) was injected into the common bile duct at a liver side. The pancreas was taken out and incubated at 37° C. for 13 min. Thereafter, Hank's balanced salt solution was added, the pancreas tissue suspension was shaken and then centrifuged to remove supernatants. The pancreas tissue was resuspended in Hank's balanced salt solution, and then subjected to filtration followed by addition of Hank's balanced salt solution to make the tissue suspension volume 35 mL. The resultant tissue suspension was mixed and then allowed to stand for 5 min. Supernatants were removed with an aspirator except that 5 mL of the solution was retained, and the remaining solution was remixed with Hank's balanced salt solution to make the tissue suspension volume 35 mL. […] After incubation in a Krebs-Ringer bicarbonate buffer (KRBB, 119 mM NaCl, 4.74 mM KCl, 2.54 mM CaCl2, 1.19 mM MgCl2, 1.19 mM KH2PO4, 25 mM NaHCO3, and 10 mM HEPES, pH 7.4) containing 2.8 mM glucose at 37° C. for 1 hr, the islets of Langerhans were dispensed in a 24-well plate at 10 islets per well, and incubated in KRBB containing 2.8, 5.6 or 16.7 mM glucose, respectively, at 37° C. for 1 hr. Each supernatant sample collected was assayed for insulin with rat insulin [^125I] Biotrak Assay System (Amersham).

The test system of assay [2] is obese animals. Conditions: cited from earlier work.

Molecules are shown by their SMILES.

As for `Cc1cc(SCc2sc(-c3ccc(C(F)(F)F)cc3)nc2C)ccc1OCC(=O)O` [GW501516, 2-{2-methyl-4-[({4-methyl-2-[4-(trifluoromethyl)phenyl]-1,3-thiazol-5-yl}methyl)thio]phenoxy}acetic acid], the “dose dependence of insulin secretion when stimulated with elevated glucose levels” value in assay [1] (10 or 100 nM GW501516, elevated glucose levels) is recorded as “increased dose-dependently insulin secretion”. The “insulin secretion on stimulation with glucose” value in assay [1] (islets from C57BL/6J mice) and in assay [1] (islets from Lepr^db/Lepr^db mice) was “significant insulin secretion” throughout. In addition, the “effect on diabetes (plasma glucose and blood insulin levels)” value in assay [2] (genetically obese animals) is “improve diabetes as revealed by the decrease in plasma glucose and blood insulin levels”. For the same compound, the “effect on obesity and insulin resistance” value in assay [2] (obese animals induced by high-fat dieting) was “ameliorate obesity and insulin resistance”.
